Experimental data taken from patent publication US20210213104A1, “GLUCAGON AND GLP-1 CO-AGONISTS FOR THE TREATMENT OF CHRONIC KIDNEY DISEASE AND DIABETIC KIDNEY DISEASE IN TYPE 2 DIABETES” (MEDIMMUNE LIMITED, priority 2020, published 2021).

Test system: subjects with T2DM and renal impairment
Test: Phase 2a: continuous glucose monitoring (CGM)
Format: in vivo, human
Details: ITT
Protocol: Cotadutide was titrated from 50 μg up to 300 μg and administered once daily by subcutaneous (SC) injection over 32 days.
Cotadutide was administered at 50 μg once daily for 4 days, followed by 100 μg daily for 7 days, 200 μg daily for 7 days, and 300 μg daily for 14 days (n=20). Placebo was administered one daily for 32 days (n=20). Cotadutide and placebo were administered in the morning. Dosing commenced following predose baseline vital signs, blood tests (including HbA1c), an electrocardiogram (ECG), body weight measurement, and bioimpedance spectroscopy (BIS). Subjects then returned for daily dosing or remained overnight locally until Day 5, and thereafter, had visits at weekly intervals until a maintenance dose of 300 μg was established. Thus, Cotadutide or placebo was administered at the study site by study personal for the first four doses and on site on Days 5, 12, 19, and 32. At all other times, subjects preformed dosing at home.
A Freestyle Libre® Pro CGM device was used to measure interstitial glucose levels. […] Data generated by CGM was used at visits to adjust insulin doses and other treatments.
The CGM sensor, which is a small plastic circular device of 35 mm diameter and 5 mm depth, was applied to the back of the upper arm. Subjects wore the CGM sensor continuously up until the time of a sensor change, which was to occur within 14 days, and they were advised that they could bathe and shower, and swim in up to 3 m depth for up to 30 minutes while wearing the CGM sensor. When the CGM sensor was removed, a new CGM sensor could be reapplied, ideally close to the original site, but with the subject's site preference taken into account. CGM sensors were single-use only.
If a subject was unable to tolerate wearing the CGM sensor for the entire duration of the study, the sensor was removed; but the subject was to remain in the study with or without continued CGM and could instead be instructed to monitor capillary plasma glucose measurements four times per day (before meals and before bedtime) and record these levels in the diary provided.
Subjects underwent continuous glucose monitoring (CGM) starting from Day −14 to Day 40 (±5 days), with sensor changes within 14-day intervals. CGM readings were used to analyze change in average CGM glucose and glucose AUC7 d, coefficient of variation as a marker of glycemic variability, and time spent in target glucose range and hypoglycemia, to enable comparison across different dose levels.

[1] = 200 μg (Days 12 to 18), baseline Days −8 to −2, ANCOVA
[2] = 200 μg (Days 12 to 18), baseline Days −8 to −2
[3] = 200 μg Dose (Days 12 to 18), Insulin Dose < 20 U/day
[4] = 200 μg Dose (Days 12 to 18), Insulin Dose ≥ 20 U/day
[5] = 200 μg Dose (Days 12 to 18), Total

## CCCCCCCCCCCCCCCC(=O)N[C@@H](CCC(=O)NCCCC[C@H](NC(=O)[C@H](CC(=O)O)NC(=O)[C@H](CO)NC(=O)[C@@H](NC(=O)[C@H](Cc1ccccc1)NC(=O)[C@@H](NC(=O)CNC(=O)[C@H](CCC(N)=O)NC(=O)[C@H](CO)NC(=O)[C@@H](N)Cc1c[nH]cn1)[C@@H](C)O)[C@@H](C)O)C(=O)N[C@@H](CO)C(=O)N[C@@H](CCC(=O)O)C(=O)N[C@@H](Cc1ccc(O)cc1)C(=O)N[C@@H](CC(C)C)C(=O)N[C@@H](CC(=O)O)C(=O)N[C@@H](CO)C(=O)N[C@@H](CCC(=O)O)C(=O)N[C@@H](CCCNC(=N)N)C(=O)N[C@@H](C)C(=O)N[C@@H](CCCNC(=N)N)C(=O)N[C@@H](CC(=O)O)C(=O)N[C@@H](Cc1ccccc1)C(=O)N[C@H](C(=O)N[C@@H](C)C(=O)N[C@@H](Cc1c[nH]c2ccccc12)C(=O)N[C@@H](CC(C)C)C(=O)N[C@@H](CCC(=O)O)C(=O)N[C@@H](C)C(=O)NCC(=O)NCC(=O)O)C(C)C)C(=O)O [Cotadutide]
100 μg Dose (Days 5 to 11), Total
  Time in target range, Difference in LS Mean Change (vs Placebo): 22.74%
200 μg (Days 12 to 18)
  Average CGM Glucose Over 7-Day Periods, End of Dosing Period, Mean: 131.724 mg/dL
  Average CGM Glucose Over 7-Day Periods, End of Dosing Period, Median: 121.570 mg/dL
  Percentage of time CGM Glucose in Hyperglycemia (>180 mg/dL), End of Dosing Period, Mean: 14.77%
  Percentage of time CGM Glucose in Hyperglycemia (>180 mg/dL), End of Dosing Period, Median: 6.61%
[1]
  Average CGM Glucose Over 7-Day Periods, Difference in LS Mean Change (vs Placebo): -40.34 mg/dL
  Average CGM Glucose Over 7-Day Periods, LS Mean Change: -30.66 mg/dL
  Percentage of time CGM Glucose in Clinically Significant Hypoglycemia (<54 mg/dL), Difference in LS Mean Change (vs Placebo): 0.43%
  Percentage of time CGM Glucose in Clinically Significant Hypoglycemia (<54 mg/dL), LS Mean Change: −0.21%
  Percentage of time CGM Glucose in Hyperglycemia (>180 mg/dL), Difference in LS Mean Change (vs Placebo): −25.47%
  Percentage of time CGM Glucose in Hyperglycemia (>180 mg/dL), LS Mean Change: −19.24%
  Percentage of time CGM Glucose in Hypoglycemia (<70 mg/dl), Difference in LS Mean Change (vs Placebo): 0.86%
  Percentage of time CGM Glucose in Hypoglycemia (<70 mg/dl), LS Mean Change: −0.14%
[2]
  Average CGM Glucose Over 7-Day Periods, Change from Baseline to End of Dosing Period, Mean: -30.668 mg/dL
  Average CGM Glucose Over 7-Day Periods, Change from Baseline to End of Dosing Period, Median: -32.533 mg/dL
  Percentage of time CGM Glucose in Hyperglycemia (>180 mg/dL), Change from Baseline to End of Dosing Period, Mean: −19.36%
  Percentage of time CGM Glucose in Hyperglycemia (>180 mg/dL), Change from Baseline to End of Dosing Period, Median: −17.72%
200 μg Dose (Days 12 to 18), ANCOVA, Insulin Dose < 20 U/day
  Time in target range, LS Mean Change: 21.04%
200 μg Dose (Days 12 to 18), ANCOVA, Insulin Dose ≥ 20 U/day
  Time in target range, LS Mean Change: 12.92%
200 μg Dose (Days 12 to 18), ANCOVA, Total
  Time in target range, LS Mean Change: 15.62%
[3]
  Percentage of Time CGM Glucose Within Target Range (70-180 mg/dL), Mean: 89.01%
  Percentage of Time CGM Glucose Within Target Range (70-180 mg/dL), Median: 96.38%
  Time in target range, Change from Baseline (Days −8 to −2), Mean: 24.48%
  Time in target range, Change from Baseline (Days −8 to −2), Median: 23.79%
  Time in target range, Difference in LS Mean Change (vs Placebo): 25.01%
[4]
  Percentage of Time CGM Glucose Within Target Range (70-180 mg/dL), Mean: 73.53%
  Percentage of Time CGM Glucose Within Target Range (70-180 mg/dL), Median: 79.59%
  Time in target range, Change from Baseline (Days −8 to −2), Mean: 11.20%
  Time in target range, Change from Baseline (Days −8 to −2), Median: 11.27%
  Time in target range, Difference in LS Mean Change (vs Placebo): 18.72%
[5]
  Percentage of Time CGM Glucose Within Target Range (70-180 mg/dL), Mean: 78.69%
  Percentage of Time CGM Glucose Within Target Range (70-180 mg/dL), Median: 80.69%
  Time in target range, Change from Baseline (Days −8 to −2), Mean: 15.39%
  Time in target range, Change from Baseline (Days −8 to −2), Median: 14.44%
  Time in target range, Difference in LS Mean Change (vs Placebo): 20.96%
